We go through one compound from patent US20060147348A1, “Sampling device and methods” (priority 2004, published 2006).

This data set can be described thus: Retention of THC in the mouth after smoking marijuana: THC in saliva and tongue mucus by quantitative GC/MS. It counts as in vivo, human. The conditions noted are these: for concentration at 5 min / concentration at 2 h / concentration at 6 h / concentration at 24 h: human, inhaled; for concentration at 5 min: 5 minutes post smoking 0.2 g of marijuana; for concentration at 2 h: 2 hours post smoking 0.2 g of marijuana; for concentration at 6 h: 6 hours post smoking 0.2 g of marijuana; for concentration at 24 h: 24 hours post smoking 0.2 g of marijuana. The text has this: 0.2 grams (g) of marijuana was smoked by a test subject. Mucosal surface samples and saliva were collected at different time intervals by scraping the top side of the tongue a polypropylene card having a width×length×thickness of about 2 inches×about 3 inches×about 0.04 inches, using the about 2 inch edge of the card as an abrasive. The mucus specimens were dripped into a glass vial for further analysis. Saliva specimens were collected at the same times by directly expectorating saliva into glass vials.
The specimens were analyzed by a quantitative GC/MS method for the detection of THC.

The mark [1] stands for this setting: saliva (expectorated), read-out: THC Concentration, Saliva.
Where [2] appears, read: tongue mucus (mucosal scrapings), mucosal scrapings from the top of the tongue, read-out: THC Concentration, Mucus.

Like-named read-outs stand apart in the source and are kept apart here.

Consider `CCCCCc1cc(O)c2c(c1)OC(C)(C)[C@@H]1CCC(C)=C[C@@H]21` [THC, Tetrahydrocannabinol], for which, under setting [1], the concentration at 5 min amounted to 115 ng/mL, the concentration at 2 h was 16 ng/mL, the concentration at 6 h was 11 ng/mL and the concentration at 24 h is 2.1 ng/mL. Moreover, under setting [2], the concentration at 5 min is 587 ng/mL, the concentration at 2 h stood at 412 ng/mL, the concentration at 6 h is 123 ng/mL and the concentration at 24 h is 44 ng/mL. Besides, the “Retention of THC in mucus specimen compared with saliva” value (mucus vs saliva, 5 minutes to 24 hours after smoking 0.2 g of marijuana) was “significantly higher concentration and for longer time than in saliva”.
